Laboratory results published in patent US6548042B2, “Bis-phosphonate compounds” (priority 2000, dated 2003).

Assays:
[1] = Pharmacokinetics in mice by scintigraphy (gamma camera); format: in vivo, balb/c mice
Procedure: Pharmacokinetics in mice. Two animals weighing 20 g and 28 g were anaesthetized and given 250 μl single bolus tail vein injections containing 12 MBq of 46a. The animals were placed under a gamma camera and 2 min frames were collected for the following 2 h. The presented data refers to the animal weighing 20 g.
A gamma camera (ADAC, USA) equipped with a 6 mm pinhole collimator was used. Dynamic data were acquired using a 128×128 matrix size, the field of view was zoomed to the middle 25×25 cm of the camera, and 2 min frames were collected for 2 hours.
The progression from intravenous injection of the hydroxybisphosphonate 46a in mice (balb/c, 20 g) was monitored by means of scintigraphy for 2 h. Images were obtained and dynamic curves for the radioactivity detected in the kidneys and bladder were derived by interactively drawing regions around structures of interest (FIG. 9). […] This is due to the increased sensitivity in the middle of the image, where the accumulation occurs in the kidneys and bladder.

MT-1 cells [2] = assay: Bone lesions to healthy bone ratio in rat inoculated with MT-1 cells (scintigraphy, Bioscope); format: in vivo; conditions: 15 MBq i.v. seven days after MT-1 inoculation, 24 h
Procedure: Tumour lesion to healthy bone ratio. A rat weighing 114 g was given a single bolus tail vein injection of 15 MBq (500 μl) of 46a seven days after inoculation with 1×10^6 MT-1 cells. The animal was sacrificed 24 h postinjection. The whole animal was then placed under a gamma camera and images were obtained. The spine was then excised and cut into slices of 10 μm. The slices were molded in Epon and images were obtained with a beta camera.
A prototype real time autoradiography system (Bioscope 3225, IDEAS, Høvik, Norway) consisting of a double sided multiple strip silicon detector was used to obtain images of bone slices.
In order to obtain ratios of bone cancer lesions to healthy bone, the hydroxybisphosphonate 46a was injected into a rat inoculated with MT-1 cells (a human breast cancer cell line, see section 4.2.3.1.) seven days earlier. The animal was sacrified 24 h postinjection and whole body images were obtained by means of scintigraphy. […] The radioactivity distributions in slices of the spine were then measured with a device (Bioscope) for real time autoradiography. The resulting images were automatically aligned by means of an image correlation method (Personal communication Arne Skretting, The Norwegian Radium Hospital, Oslo). Finally, the aligned images were added in layers to reconstruct the whole spine. […] Abnormal uptake was detected in one slice only. […]

MT-1 cells [3] = assay: Antitumour efficacy, MT-1 skeletal metastases model in nude rats; format: in vivo; conditions: for Mean survival time: 7 days after cell injection
Procedure: Initially, a skeletal metastases model in nude rats, including the human breast carcinoma line MT-1 (1) was tested. A total of 1×10^6 cells were injected into the left vintricula of the heart (L.V.) of 4-5 weeks old nude rats (2). A primary osteogenic sarcoma model in nude rats, was established by intratibial (i.t.) injection of 1×10^6 OHS cells (3-5). A total of 20 animals, allocated in four groups (n=5 for each group) were used for both cell lines. The animals inoculated with MT-1 cells were treated with 200, 300 or 400 MBq/kg of 46a seven days after cell injection. The animals inoculated with OHS cells were treated with 100, 200 or 400 MBq/kg of 46a seven days after cell inoculation. The control groups (MT-1 and OHS) received saline only. Doses were corrected for the actual weight of each animal and administered by single bolus tail vein injections.
The MT-1 model simulates formation of mixed lytic/sclerotic skeletal metastasis in breast cancer patients. The model had recently been established in immuno-deficient rats by injections into the left ventricula (L.V.) of the oestrogen receptor-negative human breast cancer (MT-1) cell line.^83,84,85 In this model, large masses of tumour cells build up in the spine, replacing the normal bone marrow and eroding the bone part of the spine.
Treatment with the hydroxybisphosphonate 46a was initiated 7 days after tumour cell inoculation, while the control group received saline only. […] In comparison, the mean survival times for the animals treated with 46a were 27.5 days (range 23-29, one survivor), 29.0 days (range 27-33) and 30.6 days (range 29-33) with increasing dose of 200, 300 and 400 MBq/kg, respectively (n=5 in each group).

[4] = mouse, in vivo
Procedure: (§1) Mice. Samples of 100 μl containing 50,100, 400, 140 or 45 KBq of 31a, 34a, 46a, 67a or 72a, respectively, were injected into the tail veins as single bolus injections. […] At 0.5 h, 2 h, 5 h and 24 h postinjection times the animals were sacrificed; except in the case of the phosphate phosphonate derivative 31 were the animals were sacrificed 0.25 h, 2 h, 5 h and 24 h postinjection. Randomly selected groups of three animals were used at each time point. The whole animals were weighed and dissected. The excised organs, i.e. femur, skull, blood, heart, lung, liver, kidney, spleen, stomach, large intestine and small intestine, were weighed separately prior to counting.
(§2) Radioactivity measurements of the labelled compounds were carried out with a liquid scintillation counter (Beckman LS 6500, Beckman Instruments, USA) or with a Capintec CRC-7R radioisotope calibrator (Capintec, USA). The radioactivity level of the excised organs was measured with an automated gamma counter (LKB Wallac 1282, Turku, Finland).

[5] = Biodistribution of i.v. administered radioiodinated compounds in balb/c mice;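 note: healthy mice given radioiodinated bisphosphonic acids, with randomly chosen groups of three animals per time point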
Procedure: as §1, §2

[6] = Biodistribution of HPLC-purified and nonpurified (crude) compound in nude rats; format: in vivo, congenitally athymic nude rats (Han rnu/rnu Rowett)
Procedure: Nude/nude rats with a body weight averaging 60 g were used in the biodistribution experiments. The aim of the study was to compare crude 3h with HPLC-purified 3h. The term “crude compound” refers to the diluted and neutralised labelling reaction mixture described hereinbefore. The compounds were administrated by tail vein injections of 200 μl for each animal, using three animals for each sample. 24 h after injection the animals were killed by a lethal injection and the tissue distribution determined.
Rats. […] At 24 h postinjection the animals were sacrificed, weighed and dissected.
To further evaluate the hydroxybisphosphonate 46a, biodistribution of this compound was obtained in rats. The goal of this experiment was to find whether there was a difference in the properties of the HPLC-purified compound as compared with a nonpurified sample.

[7] = 24 h postinjection, i.v., listed as 3h

O=P(O)(O)C(O)(Cc1cccc([131I])c1)P(=O)(O)O [46a, 1-hydroxy(m-[^131I and ^125I]-iodophenyl)-ethylidene-1,1-bisphosphonic acid]
Injected activity accumulated in the bladder ([1]; after 2 hours, mouse 20 g, 12 MBq i.v.): 27%
Peak uptake in the kidneys (left and right) ([1]; at 45 min postinjection): 7.5 % of the injected dose
Biological half-life in the kidneys ([1]; from the peak at 45 min): 50 min
Estimated excretion of the injected dose ([1]; mouse, in vivo): 35%
Estimated retention of the injected dose ([1]; mouse, in vivo): 65%
Time of peak uptake in the kidneys ([1]; postinjection): 45 min
Bone cancer lesions to healthy bone ratio (MT-1 cells [2]): inconclusive
Survival time, range (MT-1 cells [3]; 200 MBq/kg): 23 to 29 days
Mean survival time (MT-1 cells [3]; 200 MBq/kg, n=5): 27.5 days
Long time survivors (MT-1 cells [3]; 200 MBq/kg, n=5): one survivor
Survival time, range (MT-1 cells [3]; 300 MBq/kg): 27 to 33 days
Mean survival time (MT-1 cells [3]; 300 MBq/kg, n=5): 29.0 days
Survival time, range (MT-1 cells [3]; 400 MBq/kg): 29 to 33 days
Mean survival time (MT-1 cells [3]; 400 MBq/kg, n=5): 30.6 days
p of increased survival time (lifetime) compared with controls (MT-1 cells [3]; all dose levels (200, 300, 400 MBq/kg), Wilcoxon rank-sum test, long time survivors excluded): < 0.05
Lifetime after treatment (MT-1 cells [3]; breast cancer model): increased lifetime
Bone-seeking properties [4]: potent bone-seekers
Uptake in femur ([5]; 0.5 h (30 min) postinjection, i.v.): 45.03±6.75 % ID/g
Uptake in femur ([5]; 0.5 h (30 min) postinjection, i.v., listed as 3h): 45±7 % ID/g
Activity in blood ([5]; 0.5 h postinjection, i.v.): 15.92±12.75 % ID/g
Uptake in kidneys ([5]; 0.5 h postinjection, i.v.): 18.64±1.78 % ID/g
Uptake in skull ([5]; 0.5 h postinjection, i.v.): 24.61±3.85 % ID/g
Uptake in femur ([5]; 2 h postinjection (peak), i.v.): 45.54±4.10 % ID/g
Uptake in femur ([5]; 2 h postinjection (peak), i.v., listed as 3h): 46±4 % ID/g
Activity in blood ([5]; 2 h postinjection, i.v.): 1.36±0.25 % ID/g
Femur to soft tissue ratio ([5]; 24 h, soft tissue with highest uptake): ≥ 7
Uptake in femur ([5]; 24 h postinjection, i.v.): 37.79±11.78 % ID/g
Uptake in kidneys ([5]; 24 h postinjection, i.v.): 5.16±2.00 % ID/g
Uptake in liver ([5]; 24 h postinjection, i.v.): 2.27±0.69 % ID/g
Uptake in femur [5, 7]: 38±12 % ID/g
Uptake in kidneys [5, 7]: 5±2 % ID/g
Uptake in liver [5, 7]: 2±0.7 % ID/g
Uptake in femur expressed as % gram dose per gram tissue ([5]; balb/c mice, 20-25 g, 2 h, maximum uptake, listed as 1): 1025 (balb/c mice, 20-25 g, 2 h), % gram dose per gram tissue
Uptake in stomach ([5]; balb/c mice, 20-25 g, 24 h): 0.13 ± 0.01 % ID/g
Uptake in the thyroid ([5]; balb/c mice, 20-25 g, 24 h): 0.06 ± 0.04 % injected dose/organ
Ratio between uptake in femur and kidney ([5]; balb/c mice, 20-25 g, 24 h, listed as 1): 7.3 (femur/kidney, balb/c mice, 20-25 g,
Ratio between uptake in femur and kidney ([5]; balb/c mice, 20-25 g, 24 h, listed as 3h): 7
In vivo stability relative to compound 2 and 3 ([5]; from thyroid and stomach uptake, Table 3): about 7 times
Discomfort or toxicity after administration of samples ([5]; single bolus tail vein injection, 100 μl): No sign of discomfort or toxicity was observed
Bone affinity of purified compound versus crude product ([6]; 24 h): 3 fold
Femur uptake ([6]; HPLC purified, nude/nude rats 60 g, 24 h): 1020 % g dose/g
Femur to soft tissue ratio ([6]; HPLC-purified sample, 24 h): > 45
Uptake in femur ([6]; HPLC-purified sample, 24 h): 16.44±1.96 % ID/g
Uptake in kidneys ([6]; HPLC-purified sample, 24 h): 0.36±0.03 % ID/g
Uptake in skull ([6]; HPLC-purified sample, 24 h): 5.84±0.35 % ID/g
Uptake in femur expressed as % gram dose per gram tissue ([6]; Rowett rats, 60 g, 24 h): 986 (Rowett rats, 60 g, 24 h) % gram dose per gram tissue
Uptake in stomach ([6]; Rowett rats, 60 g, 24 h): 0.05 ± 0.01 % ID/g
Uptake in the thyroid ([6]; Rowett rats, 60 g, 24 h): 0.02 ± 0.01 % injected dose/organ
Ratio between uptake in femur and kidney ([6]; Rowett rats, 60 g, 24 h, HPLC purified, listed as 1): 24 h) and 45.7 (femur/kidney,
Ratio between uptake in femur and kidney ([6]; Rowett rats, 60 g, 24 h, HPLC purified, listed as 3h): above 45
Femur to kidney ratio ([6]; nonpurified sample): 14
Femur to skull ratio ([6]; nonpurified sample): ~7
Uptake in the thyroid ([6]; nonpurified sample): 0.03±0.01 % of the total injected radioactivity
Uptake in femur ([6]; nonpurified sample, 24 h): 5.28±1.10 % ID/g
